Results reported in patent US11253499B2, “Compounds” (priority 2017, dated 2022).
Read-outs that look alike come from different tables or passages of the source.

Legend:
[1] = test system: M. tuberculosis H37Rv-GFP; type: cell-based, Mycobacterium tuberculosis; conditions: read-out: EC50_H37Rv
[2] = test system: Mycobacterium tuberculosis H37Rv in human macrophages THP-1
Method: Mycobacterium tuberculosis In Vitro H37Rv in Human Macrophaqes THP-1 Inhibition Assay (Intracellular Assay)
Procedure was carried out as described in Sorrentino, F. et al. (2016) Antimicrob. Agents Chemother. 60 (1), 640-645 (supplemental material), except that before THP-1 infected cells were seeded in 384 well plates, infected macrophages were filtered in the last step of wash steps with a 40 um cell strainer to remove cell clumps and obtain single cell suspension.
The compounds of the examples were tested essentially in accordance with the above-mentioned assay (without the presence of ethionamide).

[3] = potentiation of ethionamide, ETH 0.1 μg/ml, […], 5 days at 37° C., […]

SMILES	EC50 [1] [µM]	IC50 [2] [µM]	EC50 [1, 3] [µM]
COC1(c2ccc(F)cc2)CN(C(=O)CCC(F)(F)F)C1 [Example 41, 4,4,4-trifluoro-1-(3-(4-fluorophenyl)-3-methoxyazetidin-1-yl)butan-1-one]	< 0.05	< 0.05	
O=C(CCC(F)(F)F)N1CC(c2ccnc(Cl)c2)C1 [Example 32, 1-[3-(2-chloro-4-pyridyl)azetidin-1-yl]-4,4,4-trifluoro-butan-1-one]			0.25 to 0.5
O=C(CCC(F)(F)F)N1CC(N2CCC(F)(F)CC2)C1 [Example 35, 1-[3-(4,4-difluoro-1-piperidyl)azetidin-1-yl]-4,4,4-trifluoro-butan-1-one]			0.5 to 1
O=C(CCC(F)(F)F)N1CC(c2cccc(F)c2)C1 [Example 29, 4,4,4-trifluoro-1-[3-(3-fluorophenyl)azetidin-1-yl]butan-1-one]	< 0.05	< 0.05	
O=C(CCC(F)(F)F)N1CC(c2ccnc(F)c2)C1 [Example 31, 4,4,4-trifluoro-1-[3-(2-fluoro-4-pyridyl)azetidin-1-yl]butan-1-one]			0.5 to 1
O=C(CCC(F)(F)F)N1CC(c2ccc(F)c(F)c2)C1 [Example 27, 1-[3-(3,4-difluorophenyl)azetidin-1-yl]-4,4,4-trifluoro-butan-1-one]			< 0.05
O=C(CCC(F)(F)F)N1CC(c2cncc(Cl)c2)C1 [Example 23, 1-[3-(5-chloro-3-pyridyl)azetidin-1-yl]-4,4,4-trifluoro-butan-1-one]	0.25 to 0.5	< 0.05	
O=C(CCC(F)(F)F)N1CC(c2ccc(F)cc2F)C1 [Example 18, 1-[3-(2,4-difluorophenyl)azetidin-1-yl]-4,4,4-trifluoro-butan-1-one]	< 0.05	< 0.05	
O=C(CCC(F)(F)F)N1CC(c2cccc(C(F)(F)F)c2)C1 [Example 2, 4,4,4-trifluoro-1-[3-[3-(trifluoromethyl)phenyl]azetidin-1-yl]butan-1-one]	< 0.05	< 0.05	
O=C(CCC(F)(F)F)N1CC(c2ccncc2)C1 [Example 30, 4,4,4-trifluoro-1-[3-(4-pyridyl)azetidin-1-yl]butan-1-one]			1 to 10
O=C(CCC(F)(F)F)N1CC(c2cccnc2)C1 [Example 26, 4,4,4-trifluoro-1-[3-(3-pyridyl)azetidin-1-yl]butan-1-one]	1 to 10	1 to 10	
CC(C)Oc1ccc(C2CN(C(=O)CCC(F)(F)F)C2)cn1 [Example 36, 4,4,4-trifluoro-1-[3-(6-isopropoxy-3-pyridyl)azetidin-1-yl]butan-1-one]			0.05 to 0.25
O=C(CCC(F)(F)F)N1CC(c2ccc(F)cc2Cl)C1 [Example 20, 1-[3-(2-chloro-4-fluoro-phenyl)azetidin-1-yl]-4,4,4-trifluoro-butan-1-one]	0.05 to 0.25	0.05 to 0.25	
O=C(CCC(F)(F)F)N1CC(c2cncc(C(F)(F)F)c2)C1 [Example 24, 4,4,4-trifluoro-1-[3-[5-(trifluoromethyl)-3-pyridyl]azetidin-1-yl]butan-1-one]			1 to 10
O=C(CCC(F)(F)F)N1CC(c2ccnc(C(F)(F)F)c2)C1 [Example 12, 4,4,4-trifluoro-1-[3-[2-(trifluoromethyl)-4-pyridyl]azetidin-1-yl]butan-1-one]	0.25 to 0.5	0.05 to 0.25	
O=C(CCC(F)(F)F)N1CC(c2ncc(F)cc2F)C1 [Example 10, 1-[3-(3,5-difluoro-2-pyridyl)azetidin-1-yl]-4,4,4-trifluoro-butan-1-one]			< 0.05
O=C(CCC(F)(F)F)N1CC(c2ccc(F)nc2)C1 [Example 33, 4,4,4-trifluoro-1-[3-(6-fluoro-3-pyridyl)azetidin-1-yl]butan-1-one]			0.5 to 1
O=C(CCCC(F)(F)F)N1CC(c2ccc(F)cc2)C1 [Example 3, 5,5,5-trifluoro-1-[3-(4-fluorophenyl)azetidin-1-yl]pentan-1-one]	< 0.05	0.05 to 0.25	
O=C(CCC(F)(F)F)N1CC(c2cccc(OC(F)(F)F)c2)C1 [Example 15, 4,4,4-trifluoro-1-[3-[3-(trifluoromethoxy)phenyl]azetidin-1-yl]butan-1-one]	< 0.05	< 0.05	
O=C(CCC(F)(F)F)N1CC(c2ccc(OC(F)(F)F)cc2)C1 [Example 14, 4,4,4-trifluoro-1-[3-[4-(trifluoromethoxy)phenyl]azetidin-1-yl]butan-1-one]	< 0.05	0.25 to 0.5	
O=C(CCC(F)(F)F)N1CC(c2ccc(F)cc2)C1 [Example 1, 4,4,4-trifluoro-1-[3-(4-fluorophenyl)azetidin-1-yl]butan-1-one]	< 0.05	< 0.05	
O=C(CCC(F)(F)F)N1CC(C2CCOCC2)C1 [Example 38, 4,4,4-trifluoro-1-(3-(tetrahydro-2H-pyran-4-yl)azetidin-1-yl)butan-1-one]	0.25 to 0.5	0.05 to 0.25	

SMILES	EC50 [1] [µM]	IC50 [2] [µM]	EC50 [1, 3] [µM]
Cc1cc(F)ccc1C1CN(C(=O)CCC(F)(F)F)C1 [Example 28, 4,4,4-trifluoro-1-[3-(4-fluoro-2-methyl-phenyl)azetidin-1-yl]butan-1-one]	0.05 to 0.25	0.05 to 0.25	
N#Cc1ccc(C2CN(C(=O)CCC(F)(F)F)C2)cc1 [Example 43, 4-(1-(4,4,4-trifluorobutanoyl)azetidin-3-yl)benzonitrile]			1 to 10
CC1(c2ccc(F)cc2)CN(C(=O)CCC(F)(F)F)C1 [Example 42, 4,4,4-trifluoro-1-(3-(4-fluorophenyl)-3-methylazetidin-1-yl)butan-1-one]	< 0.05	< 0.05	
O=C(CCC(F)(F)F)N1CC(c2ccc(F)cn2)C1 [Example 9, 4,4,4-trifluoro-1-[3-(5-fluoro-2-pyridyl)azetidin-1-yl]butan-1-one]	0.05 to 0.25	0.05 to 0.25	
O=C(CCC(F)(F)F)N1CC(C2CCC(F)(F)CC2)C1 [Example 40, 1-(3-(4,4-difluorocyclohexyl)azetidin-1-yl)-4,4,4-trifluorobutan-1-one]			0.05 to 0.25
O=C(CCC(F)(F)F)N1CC(c2ccc(Cl)nc2)C1 [Example 19]	0.25 to 0.5	0.05 to 0.25	
O=C(CCC(F)(F)F)N1CC(C2CCCCC2)C1 [Example 6, 1-(3-cyclohexylazetidin-1-yl)-4,4,4-trifluoro-butan-1-one]			< 0.05
O=C(CCC(F)(F)F)N1CC(c2ccc(Cl)cc2)C1 [Example 13, 1-[3-(4-chlorophenyl)azetidin-1-yl]-4,4,4-trifluoro-butan-1-one]	< 0.05	0.05 to 0.25	
O=C(CCC(F)(F)F)N1CC(c2ccc(F)cc2C(F)(F)F)C1 [Example 25, 4,4,4-trifluoro-1-[3-[4-fluoro-2-(trifluoromethyl)phenyl]azetidin-1-yl]butan-1-one]	0.05 to 0.25	0.05 to 0.25	
O=C(CCC(F)(F)F)N1CC(c2cc(F)c(F)c(F)c2)C1 [Example 34, 4,4,4-trifluoro-1-[3-(3,4,5-trifluorophenyl)azetidin-1-yl]butan-1-one]	< 0.05	0.05 to 0.25	
O=C(CCC(F)(F)F)N1CC(c2cc(C(F)(F)F)ccn2)C1 [Example 7, 4,4,4-trifluoro-1-[3-[4-(trifluoromethyl)-2-pyridyl]azetidin-1-yl]butan-1-one]	0.05 to 0.25	0.05 to 0.25	
O=C(CCC(F)(F)F)N1CC(C2CC2)C1 [Example 4, 1-(3-cyclopropylazetidin-1-yl)-4,4,4-trifluoro-butan-1-one]	0.25 to 0.5	0.05 to 0.25	
O=C(CCC(F)(F)F)N1CC(c2ccc(C(F)(F)F)cc2)C1 [Example 16]	0.05 to 0.25	0.25 to 0.5	
O=C(CCC(F)(F)F)N1CC(N2CCCCC2)C1 [Example 39, 4,4,4-trifluoro-1-(3-(piperidin-1-yl)azetidin-1-yl)butan-1-one]			1 to 10
O=C(CCC(F)(F)F)N1CC(c2ccc(C(F)(F)F)cn2)C1 [Example 8, 4,4,4-trifluoro-1-[3-[5-(trifluoromethyl)-2-pyridyl]azetidin-1-yl]butan-1-one]	0.25 to 0.5	1 to 10	
O=C(CCC(F)(F)F)N1CC(c2ccc(C(F)(F)F)nc2)C1 [Example 21, 4,4,4-trifluoro-1-[3-[6-(trifluoromethyl)-3-pyridyl]azetidin-1-yl]butan-1-one]	1 to 10	0.25 to 0.5	
O=C(CCC(F)(F)F)N1CC(C2CCCC2)C1 [Example 5, 1-(3-cyclopentylazetidin-1-yl)-4,4,4-trifluoro-butan-1-one]			< 0.05
O=C(CCC(F)(F)F)N1CC(c2cccc(Cl)c2)C1 [Example 17, 1-[3-(3-chlorophenyl)azetidin-1-yl]-4,4,4-trifluoro-butan-1-one]	< 0.05	< 0.05	
COc1ccc(C2CN(C(=O)CCC(F)(F)F)C2)cn1 [Example 22, 4,4,4-trifluoro-1-[3-(6-methoxy-3-pyridyl)azetidin-1-yl]butan-1-one]			< 0.05
O=C(CCC(F)(F)F)N1CC(c2cc(Cl)ccn2)C1 [Example 11, 1-[3-(4-chloro-2-pyridyl)azetidin-1-yl]-4,4,4-trifluoro-butan-1-one]	0.05 to 0.25	0.05 to 0.25	
O=C(CCC(F)(F)F)N1CC(F)(c2ccc(F)cc2)C1 [Example 44, 4,4,4-trifluoro-1-(3-fluoro-3-(4-fluorophenyl)azetidin-1-yl)butan-1-one]			< 0.05
O=C(CCC(F)(F)F)N1CC(c2ccc(OCC(F)(F)F)nc2)C1 [Example 37, 4,4,4-trifluoro-1-[3-[6-(2,2,2-trifluoroethoxy)-3-pyridyl]azetidin-1-yl]butan-1-one]			0.25 to 0.5
